In patent US20240374524A1, “INCREASING PERMEATION FOR PRE-GASTRIC ABSORPTION OF ACTIVE PHARMACEUTICAL INGREDIENTS” (Catalent U.K. Swindon Zydis Limited, priority 2023, published 2024):
Values after ≈ are worked out from the molar mass of the structure shown. “Also recorded” adds a separate entry of the source. Read-outs that look alike come from different tables or passages of the source. One block for each molecule: values may come before it.

Columns and labels:
[1] = cited from earlier work; for HLB value: hydrophilic-lipophilic balance of surfactant
TR146 buccal cell line [2] = experiment: Pre-formulation permeability of Carvedilol/permeation agent binary mixes, TR146 cells on Transwell inserts
TR146 buccal cell line [3] = experiment: Pre-formulation permeability of Piroxicam & permeation agent binary mixtures, TR146 cells on Transwell inserts; conditions: for % Cumulative Permeability (n = 3) 1 min / % Cumulative Permeability (n = 3) 2 min / % Cumulative Permeability (n = 3) 5 min / % Cumulative Permeability (n = 3) 15 min / % Cumulative Permeability (n = 3) 20 min / % Cumulative Permeability (n = 3) 30 min: Piroxicam 0.35 mg in donor
TR146 buccal cell line [4] = experiment: Permeability of Famotidine/permeation agent binary mixes, TR146 cells on Transwell inserts
TR146 buccal cell line [5] = experiment: Permeability of Atenolol/permeation agent binary mixes (Table 11), TR146 cells on Transwell inserts; conditions: surfactants 1:1 molar ratio, PF127 and bile salt 2×CMC, citric acid 0.37-1 mg/ml
TR146 buccal cell line [6] = experiment: Permeability of reconstituted Piroxicam freeze-dried ODT, TR146 cells on Transwell inserts; format: in vitro ADME
[7] = Measured pH of API/permeation agent mixtures and of dispersed ODTs; format: physicochemical
[8] = Theoretical percent ionized and un-ionized API at sample pH (Henderson-Hasselbach equation); format: physicochemical; conditions: for Calculated % ionized / Calculated % unionized: Piroxicam at sample pH
TR146 buccal cell line [9] = conditions: human, 1.74 mg/ml, pH 7
[10] = Physicochemical properties of model APIs and permeation agents (solubility, log P, pKa, HLB)
[11] = agent at 1:1 molar ratio to Piroxicam, CA after 20 and 30 minutes
[12] = agent at 1:1 molar ratio to Piroxicam, at 30 minutes
[13] = Piroxicam 0.7 mg/ml binary mixtures in distilled water, ^a after adjustment with 0.1M HCl

pH ([7]; Carvedilol 1.74 mg/ml binary mixes in water, ^a after 0.1M NaOH, ^b after 0.1M HCL): 7
% Cumulative Permeability (n = 3) 1 min (TR146 buccal cell line [9]; 1 min): 0.02%
% Cumulative Permeability (n = 3) 2 min (TR146 buccal cell line [9]; 2 min): 0.03%
% Cumulative Permeability (n = 3) 5 min (TR146 buccal cell line [9]; 5 min): 0.03%
% Cumulative Permeability (n = 3) 15 min (TR146 buccal cell line [9]; 15 min): 0.10%
% Cumulative Permeability (n = 3) 20 min (TR146 buccal cell line [9]; 20 min): 0.13%
% Cumulative Permeability (n = 3) 30 min (TR146 buccal cell line [9]; 30 min): 0.18%
Calculated % ionised ([8]; Carvedilol at sample pH): 86.32%
Calculated % unionised ([8]; Carvedilol at sample pH): 13.68%
Molecule: COc1ccccc1OCCNCC(O)COc1cccc2[nH]c3ccccc3c12 (stereo not shown) [Sample 1CAV, Carvedilol]

% Cumulative Permeability (n = 3) 1 min (TR146 buccal cell line [4]; Famotidine […], 0.5 ml in donor, 1 min): 0.32%
% Cumulative Permeability (n = 3) 2 min (TR146 buccal cell line [4]; Famotidine […], 0.5 ml in donor, 2 min): 0.84%
% Cumulative Permeability (n = 3) 5 min (TR146 buccal cell line [4]; Famotidine […], 0.5 ml in donor, 5 min): 2.09%
% Cumulative Permeability (n = 3) 15 min (TR146 buccal cell line [4]; Famotidine […], 0.5 ml in donor, 15 min): 7.81%
% Cumulative Permeability (n = 3) 20 min (TR146 buccal cell line [4]; Famotidine […], 0.5 ml in donor, 20 min): 11.76%
% Cumulative Permeability (n = 3) 30 min (TR146 buccal cell line [4]; Famotidine […], 0.5 ml in donor, 30 min): 19.98%
Calculated % ionised ([8]; Famotidine at sample pH): 1.53%
Calculated % unionised ([8]; Famotidine at sample pH): 98.47%
Molecule: NC(N)=Nc1nc(CSCCC(N)=NS(N)(=O)=O)cs1 [Sample 1FAM, Famotidine]

% Cumulative Permeability (n = 3) 1 min (TR146 buccal cell line [3]): 0.08%
% Cumulative Permeability (n = 3) 2 min (TR146 buccal cell line [3]): 0.24%
% Cumulative Permeability (n = 3) 5 min (TR146 buccal cell line [3]): 0.96%
% Cumulative Permeability (n = 3) 15 min (TR146 buccal cell line [3]): 3.82%
% Cumulative Permeability (n = 3) 20 min (TR146 buccal cell line [3]): 5.89%
% Cumulative Permeability (n = 3) 30 min (TR146 buccal cell line [3]): 9.96%
pH [7, 13]: 5.30
Calculated % ionized [8]: 61.31%
Calculated % unionized [8]: 38.69%
Molecule: CN1C(C(=O)Nc2ccccn2)=C(O)c2ccccc2S1(=O)=O [Sample 1PXM, Piroxicam]

% Cumulative Permeability (n = 3) 1 min (TR146 buccal cell line [3]): 0.13%
% Cumulative Permeability (n = 3) 2 min (TR146 buccal cell line [3]): 0.41%
% Cumulative Permeability (n = 3) 5 min (TR146 buccal cell line [3]): 1.60%
% Cumulative Permeability (n = 3) 15 min (TR146 buccal cell line [3]): 5.88%
% Cumulative Permeability (n = 3) 20 min (TR146 buccal cell line [3]): 7.91%
% Cumulative Permeability (n = 3) 30 min (TR146 buccal cell line [3]): 11.24%
pH [7, 13]: 6.64
Calculated % ionized [8]: 97.20%
Calculated % unionized [8]: 2.80%
Molecule: CN1C(C(=O)Nc2ccccn2)=C(O)c2ccccc2S1(=O)=O [Sample 3PXM, Piroxicam]

effect on Piroxicam permeability vs control (TR146 buccal cell line [3]; [11]): significantly reduced
Molecule: CCCCCCCCCC(=O)O [capric acid, Capric acid]

effect on Piroxicam permeability (TR146 buccal cell line [3]; 1:3 and 1:6 molar ratios Piroxicam to counterion): no significant enhancement
pKa [10]: ≥ 5
Molecule: NCCCC[C@H](N)C(=O)O [lysine, Lysine]

effect on Piroxicam permeability vs control (TR146 buccal cell line [3]; [11]): increased
fold increase in Piroxicam percentage cumulative permeability vs control (TR146 buccal cell line [3]; [12]): 2.1 fold
percentage cumulative permeability of Piroxicam (TR146 buccal cell line [3]; [12]): 20.82%
Molecule: POE-(4)-sorbitan monolaurate [Tween 21]
effect on Famotidine permeability vs control (TR146 buccal cell line [4]): Neither PF127 nor Tween 21 showed an enhancement; also recorded: no increase in Famotidine permeability was observed

fold increase in Famotidine permeability vs control (TR146 buccal cell line [4]; 1:1 molar ratio, time not stated): 2 fold
Molecule: Sorbitan monooleate [Span 80]
effect on Piroxicam permeability vs control (TR146 buccal cell line [3]; [11]): reduce the Piroxicam permeability significantly

More lines, now with the values behind:

Molecule: COc1ccccc1OCCNCC(O)COc1cccc2[nH]c3ccccc3c12 (stereo not shown) [Carvedilol]
water solubility [1]: 4.44 µg/mL (≈ 10.9 µM)

Molecule: CCCCCCCCCCCCO[C@@H]1O[C@H](CO)[C@@H](O[C@H]2O[C@H](CO)[C@@H](O)[C@H](O)[C@H]2O)[C@H](O)[C@H]1O [DDM, Dodecyl-B-D-Maltoside]
effect on Carvedilol permeability vs control (TR146 buccal cell line [2]; PF127 at 2×CMC, other surfactants at 1:1 molar ratio): No significant effect
effect on Piroxicam permeability vs control (TR146 buccal cell line [3]; [11]): increased
fold increase in Piroxicam percentage cumulative permeability vs control (TR146 buccal cell line [3]; [12]): 2.6 fold
percentage cumulative permeability of Piroxicam (TR146 buccal cell line [3]; [12]): 25.60%
HLB value [1]: 13.5
difference in Famotidine permeability vs control (TR146 buccal cell line [4]; 1:1 molar ratio, at the 20 and 30 minute marks): no significant difference
fold increase in Famotidine permeability vs control (TR146 buccal cell line [4]; 1:1 molar ratio, first 5 through 15 minutes): 3 fold
effect on Atenolol permeability vs control (TR146 buccal cell line [5]): no statistically significant difference

Molecule: CN1C(C(=O)Nc2ccccn2)=C(O)c2ccccc2S1(=O)=O [Piroxicam]
pKa [1]: 5.1
water solubility [1]: 143 µg/mL (≈ 432 µM)

Molecule: CCCCCCCCCCCCOS(=O)(=O)[O-].[Na+] [SLS, Sodium Lauryl Sulfate]
effect on Piroxicam permeability vs control (TR146 buccal cell line [3]; [11]): increased
HLB value [1]: 40
effect on Atenolol permeability vs control (TR146 buccal cell line [5]): non-statistically significant increase
effect on permeability of Piroxicam ODT vs control (TR146 buccal cell line [6]; 0.69% w/w and 3.49% w/w (PXM:SLS 5:1 and 1:1)): increased
permeability of 3.49% w/w sample compared to 0.69% w/w sample (TR146 buccal cell line [6]; Piroxicam ODT): marginally higher but statistically significant increase

Molecule: CC(C)NCC(O)COc1ccc(CC(N)=O)cc1 (stereo not shown) [Sample 1ATL, Atenolol]
pH ([7]; Atenolol 1.74 mg/ml binary mixes in distilled water, ^a after 0.1M NaOH): 10.58
pH ([7]; measured pH of Atenolol (1.74 mg/ml)/permeation agent mixture in distilled water): 10.58
% ionised ([8]; Atenolol at sample pH): 9.48%
% unionised ([8]; Atenolol at sample pH): 90.52%

Molecule: C[C@H](CCC(=O)[O-])[C@H]1CC[C@H]2[C@@H]3[C@H](O)C[C@@H]4C[C@H](O)CC[C@]4(C)[C@H]3C[C@H](O)[C@]12C.O.[Na+] [sodium cholate hydrate, Sodium Cholate hydrate]
fold increase in Carvedilol percentage cumulative permeability vs control (TR146 buccal cell line [2]; at/after 30 minutes): ~2 fold
percentage cumulative permeability of Piroxicam (TR146 buccal cell line [3]; agent at 1×CMC, at 30 minutes): 39.52%
percentage cumulative permeability of Piroxicam (TR146 buccal cell line [3]; agent at 2×CMC, at 30 minutes): 14.44%
effect on Piroxicam permeability vs control (TR146 buccal cell line [3]; bile salt at 0.5 CMC): slight, statistically non-significant increase
fold increase in Piroxicam permeability vs control (TR146 buccal cell line [3]; bile salt at 1 CMC, at 30 minutes): 4 fold
effect on Piroxicam permeability vs control (TR146 buccal cell line [3]; bile salt at 2 CMC, pH-adjusted using citric acid): slight and statistically non-significant
fold increase in Piroxicam percentage cumulative permeability (TR146 buccal cell line [3]; bile salt at 2 CMC, at the first minute): 1.5 fold
effect on Atenolol permeability vs control (TR146 buccal cell line [5]): no statistical difference
effect on permeability of Piroxicam in ODT (TR146 buccal cell line [6]; […] w/w, 0.5×CMC in aqueous dispersion): only slightly increased
